Common to all, as to type: functional
Assay [1] has as its system Candida albicans. Nature of the assay: Antifungal activity against Candida albicans ATCC 90028 assessed as planktonic growth inhibition at 0.65 uM after 48 hrs by M27-A3 protocol based method relative to control. Conditions: ATCC 90028, 48 h, read-out: GI.
Assay [2] relates to Candida albicans. Nature of the assay: Antifungal activity against Candida albicans ATCC 90028 assessed as planktonic growth inhibition at 41.9 uM after 48 hrs by M27-A3 protocol based method relative to control. Conditions: ATCC 90028, 48 h, read-out: GI.
For assay [3], the system named is Candida albicans. The experiment in a line: Antifungal activity against Candida albicans ATCC 90028 assessed as planktonic growth inhibition at 10.47 uM after 48 hrs by M27-A3 protocol based method relative to control. The conditions noted are these: ATCC 90028, 48 h, read-out: GI.
Assay [4] relates to Candida albicans. Nature of the assay: Antifungal activity against Candida albicans ATCC 90028 assessed as planktonic growth inhibition at 5.24 uM after 48 hrs by M27-A3 protocol based method relative to control. The conditions noted are these: ATCC 90028, 48 h, read-out: GI.
The test system of assay [5] is Candida albicans. Nature of the assay: Fungicidal activity against Candida albicans ATCC 90028 assessed as log reduction in fungal load incubated for 48 hrs followed by replating on sabouraud dextrose agar plate and measured after 48 hrs.
For assay [6], the system named is Candida albicans. Nature of the assay: Antifungal activity against Candida albicans ATCC 90028 assessed as planktonic growth inhibition at 2.62 uM after 48 hrs by M27-A3 protocol based method relative to control. The conditions noted are these: ATCC 90028, 48 h, read-out: GI.
Assay [7] relates to Candida albicans. The experiment in a line: Antifungal activity against Candida albicans ATCC 90028 assessed as planktonic growth inhibition at 20.95 uM after 48 hrs by M27-A3 protocol based method relative to control. Conditions: ATCC 90028, 48 h, read-out: GI.
Assay [8] deals with Candida albicans. Nature of the assay: Antifungal activity against Candida albicans ATCC 90028 assessed as planktonic growth inhibition at 1.31 uM after 48 hrs by M27-A3 protocol based method relative to control. The conditions noted are these: ATCC 90028, 48 h, read-out: GI.
Assay [9] has as its system Candida albicans. Nature of the assay: Antifungal activity against Candida albicans ATCC 90028 assessed as planktonic growth inhibition at 0.16 uM after 48 hrs by M27-A3 protocol based method relative to control. The conditions noted are these: ATCC 90028, 48 h, read-out: GI.
The test system of assay [10] is Candida albicans. The experiment in a line: Antifungal activity against Candida albicans ATCC 90028 assessed as planktonic growth inhibition at 0.33 uM after 48 hrs by M27-A3 protocol based method relative to control. Conditions: ATCC 90028, 48 h, read-out: GI.
Assay [11] has as its system Candida albicans. Nature of the assay: Antifungal activity against Candida albicans ATCC 90028 assessed as planktonic growth inhibition at 0.08 uM after 48 hrs by M27-A3 protocol based method relative to control. The conditions noted are these: ATCC 90028, 48 h, read-out: GI.
Assay [12] has as its system Candida albicans. Nature of the assay: Antifungal activity against Candida albicans ATCC 90028 assessed as planktonic growth inhibition at 0.36 uM after 48 hrs by M27-A3 protocol based method relative to control. Conditions: ATCC 90028, 48 h, read-out: GI.
For assay [13], the system named is Candida albicans. Nature of the assay: Antifungal activity against Candida albicans ATCC 90028 assessed as planktonic growth inhibition at 5.76 uM after 48 hrs by M27-A3 protocol based method relative to control. Conditions: ATCC 90028, 48 h, read-out: GI.
Assay [14] has as its system Candida albicans. Nature of the assay: Antifungal activity against Candida albicans ATCC 90028 assessed as planktonic growth inhibition at 46.05 uM after 48 hrs by M27-A3 protocol based method relative to control. The conditions noted are these: ATCC 90028, 48 h, read-out: GI.
Assay [15] has as its system Candida albicans. The experiment in a line: Antifungal activity against Candida albicans ATCC 90028 assessed as planktonic growth inhibition at 1.44 uM after 48 hrs by M27-A3 protocol based method relative to control. The conditions noted are these: ATCC 90028, 48 h, read-out: GI.
Assay [16] concerns Candida albicans. Nature of the assay: Antifungal activity against Candida albicans ATCC 90028 assessed as planktonic growth inhibition at 0.18 uM after 48 hrs by M27-A3 protocol based method relative to control. The conditions noted are these: ATCC 90028, 48 h, read-out: GI.
Assay [17] deals with Candida albicans. Nature of the assay: Antifungal activity against Candida albicans ATCC 90028 assessed as planktonic growth inhibition at 2.88 uM after 48 hrs by M27-A3 protocol based method relative to control. Conditions: ATCC 90028, 48 h, read-out: GI.
In assay [18] the test system is Candida albicans. The experiment in a line: Antifungal activity against Candida albicans ATCC 90028 assessed as planktonic growth inhibition at 23.02 uM after 48 hrs by M27-A3 protocol based method relative to control. Conditions: ATCC 90028, 48 h, read-out: GI.
Assay [19] relates to Candida albicans. Nature of the assay: Antifungal activity against Candida albicans ATCC 90028 assessed as planktonic growth inhibition at 0.72 uM after 48 hrs by M27-A3 protocol based method relative to control. The conditions noted are these: ATCC 90028, 48 h, read-out: GI.
Assay [20] deals with Candida albicans. Nature of the assay: Antifungal activity against Candida albicans ATCC 90028 assessed as planktonic growth inhibition at 11.51 uM after 48 hrs by M27-A3 protocol based method relative to control. Conditions: ATCC 90028, 48 h, read-out: GI.
Assay [21] has as its system Candida albicans. The experiment in a line: Antifungal activity against Candida albicans ATCC 90028 assessed as planktonic growth inhibition at 0.09 uM after 48 hrs by M27-A3 protocol based method relative to control. The conditions noted are these: ATCC 90028, 48 h, read-out: GI.

For `Cc1ccc(-c2nnn(CCCN3CCCC3c3ccc(Cl)cc3)n2)cc1` (stereo not given), the inhibition of growth at 0.65 µM in assay [1] is 99.1%. For the same compound, the inhibition of growth at 41.9 µM in assay [2] is 98.8%. Further, the inhibition of growth at 10.47 µM in [3] worked out at 99.4%. In addition, the inhibition of growth at 5.24 µM in assay [4] was 99%. For the same compound, the “log(activity)” value in [5] was -0.4. For the same compound, the inhibition of growth at 2.62 µM in [6] came to 99.3%. The inhibition of growth at 20.95 µM in assay [7] came out at 99.2%. Besides, in assay [8], the inhibition of growth at 1.31 µM stood at 99.2%. Besides, in assay [9], the inhibition of growth at 0.16 µM was determined as 99.5%. The inhibition of growth at 0.33 µM in assay [10] is 99.2%. In addition, in assay [11], the inhibition of growth at 0.08 µM came to 99.4%.

For the compound `Cc1ccc(C2CCCN2CCCn2nnc(-c3ccccc3Cl)n2)cc1` (stereo not given), the inhibition of growth at 0.65 µM in [1] came out at 99.2%. In addition, in assay [2], the inhibition of growth at 41.9 µM was found to be 99.6%. Further, the inhibition of growth at 10.47 µM in assay [3] is 99.5%. Besides, in assay [4], the inhibition of growth at 5.24 µM was 99.4%. Besides, in assay [5], the “log(activity)” value is recorded as -0.2. In addition, the inhibition of growth at 2.62 µM in assay [6] stood at 99.3%. Also, in [7], the inhibition of growth at 20.95 µM was 99.5%. In addition, the inhibition of growth at 1.31 µM in [8] is 99.2%. Further, in assay [9], the inhibition of growth at 0.16 µM turned out to be 98.9%. In addition, the inhibition of growth at 0.33 µM in assay [10] turned out to be 99.2%. Moreover, in assay [11], the inhibition of growth at 0.08 µM is 98.8%.

Turning to `Cc1ccc(C2CCCN2CCCn2nnc(-c3ccc(Cl)cc3)n2)cc1` (stereo not given), the inhibition of growth at 0.65 µM in assay [1] turned out to be 99.2%. The inhibition of growth at 41.9 µM in assay [2] came to 99.2%. The inhibition of growth at 10.47 µM in assay [3] was 99.4%. In addition, the inhibition of growth at 5.24 µM in assay [4] amounted to 99.4%. The “log(activity)” value in assay [5] is -0.5. Also, the inhibition of growth at 2.62 µM in [6] worked out at 99.2%. Besides, the inhibition of growth at 20.95 µM in assay [7] stood at 99.4%. In addition, in assay [8], the inhibition of growth at 1.31 µM was 99.4%. Moreover, the inhibition of growth at 0.16 µM in [9] came out at 99.1%. In assay [10], the inhibition of growth at 0.33 µM is 99.3%. In assay [11], the inhibition of growth at 0.08 µM stood at 99.2%.

Consider `Cc1ccc(C2CCCN2CCCn2nnc(-c3ccccc3)n2)cc1` (stereo not given), for which the inhibition of growth at 0.36 µM in [12] was 99%. For the same compound, the inhibition of growth at 5.76 µM in assay [13] came to 99.2%. The inhibition of growth at 46.05 µM in assay [14] worked out at 99%. In addition, the inhibition of growth at 1.44 µM in assay [15] is 99.2%. In addition, the “log(activity)” value in assay [5] was -0.6. Also, the inhibition of growth at 0.18 µM in assay [16] stood at 99.3%. Moreover, in [17], the inhibition of growth at 2.88 µM stood at 99.2%. Also, the inhibition of growth at 23.02 µM in assay [18] was determined as 99%. Besides, the inhibition of growth at 0.72 µM in [19] was found to be 99.3%. In addition, the inhibition of growth at 11.51 µM in assay [20] turned out to be 99.5%. Besides, the inhibition of growth at 0.09 µM in [21] was found to be 98.9%.

As for `Cc1cccc(C2CCCN2CCCn2nnc(-c3ccccc3Cl)n2)c1` (stereo not given), in assay [1], the inhibition of growth at 0.65 µM was found to be 99.2%. In addition, the inhibition of growth at 41.9 µM in [2] was found to be 99.8%. For the same compound, in [3], the inhibition of growth at 10.47 µM was 99.6%. In addition, the inhibition of growth at 5.24 µM in assay [4] was found to be 99.4%. Further, in assay [5], the “log(activity)” value was -0.5. The inhibition of growth at 2.62 µM in assay [6] amounted to 99.3%. The inhibition of growth at 20.95 µM in assay [7] was 99.7%. In [8], the inhibition of growth at 1.31 µM is 99.2%. In assay [9], the inhibition of growth at 0.16 µM was found to be 99.1%. The inhibition of growth at 0.33 µM in [10] was determined as 99.2%. In addition, in [11], the inhibition of growth at 0.08 µM came to 99.1%.

Source of the values: ChEMBL document CHEMBL4411303, “Synthesis of tetrazole derivatives bearing pyrrolidine scaffold and evaluation of their antifungal activity against Candida albicans” (Eur J Med Chem, 2019).
